Experimental findings from article PMC5666896, “Molecular Docking and Screening Studies of New Natural Sortase A Inhibitors” (International Journal of Molecular Sciences, 2017) are described below.

Data set [1] addresses T1, SrtA (Staphylococcus aureus, UniProt Q2FV99).
T1 construct: purchased Anaspec, San Jose, CA, USA
Nature of the data set: Sortase A activity assay (FRET, SensoLyte 520 kit). To be noted: for SrtA inhibitory activity relative to myricetin (fold lower; myricetin IC50 fold lower than this compound): ratio of IC50 values to myricetin. It counts as biochemical, S. aureus. Here is the method: The inhibitory activity of all of the compounds was determined by quantifying the increase in fluorescence intensity upon a cleavage 5-FAM/QXL® FRET substrate using a SensoLyte® 520 Sortase A Activity Assay Kit (Anaspec, San Jose, CA, USA). According to kit protocol, reactions were performed in a 96-well plate, with each well containing 10 μL test compound solution, 40 μL enzyme solution, and 50 μL sortase substrate solution. All compounds were dissolved in dimethyl sulfoxide (DMSO) and diluted with sterilized distilled water. The final concentration of DMSO was 1%. Each compound diluted in buffer to the tested concentration and was checked for intrinsic fluorescence. According to the kit protocol, we used the enzyme without the test compound as a control, a 1% DMSO control, and a substrate control. We used the kit inhibitor, 4-hydroxymercuribenzoic acid (HMB), as the positive control. Reactions were carried out for 1 h at room temperature and analyzed fluorometrically (SpectraMAX Gemini XS, CA, USA) at Ex/Em = 490 nm/520 nm. All reported values are the means of triplicate assays.

Data set [2] is described as follows: in vivo. To be noted: in vivo. Here is the method:
(§1) The Daphnia magna test was performed in 4 mL 12-tissue culture wells, using 10 daphnids/well, with each sample being tested in duplicate. […] All experiments were conducted in the dark, in a plant growth chamber (Sanyo MLR-351 H, San Diego, CA, USA) at 25 ± 1 °C [32, 33].
(§2) Statistical analysis of the inhibitory effect on SrtA and the Daphnia magna bioassay was performed using GraphPad Prism version 5.01 software (GraphPad Software, Inc., La Jolla, CA, USA). A student’s t-test (p < 0.05) was applied in order to analyze the results obtained from replicates. […] The inhibition (I %) and lethality percentage (L %) values were calculated and plotted against the logarithm of concentrations and the corresponding curves were calculated using the least squares fit method. […] Whenever the obtained results permitted, the upper and lower limits of the 95% confidence interval (95% CI) and the correlation coefficient (r^2) were calculated.

The test system of data set [3] is Daphnia magna. Nature of the data set: in vivo. To be noted: for Maximum lethality: after 48 h, tested 0.5 to 100 μM; for Highest lethality: after 48 h of exposure at 100 μM; for Toxicity on Daphnia magna (result in words): in vivo. Here is the method:
as §1, §2

A short description of data set [4]: Solubility in water (observation during FRET testing).

The term inhibition denotes the share of the control response that was lost under treatment. Read a low inhibition as a weak effect. For orientation: LC50 means the concentration that kills 50% of the test population. The low end stands for greater toxicity, the high end for lower toxicity. As a reminder, the IC50 is the midpoint of a concentration-inhibition curve.

SMILES strings stand for the structures. “Also recorded” adds a separate entry of the source. Like-named read-outs stand apart in the source and are kept apart here.

T1 sequence (Q2FV99 whole entry): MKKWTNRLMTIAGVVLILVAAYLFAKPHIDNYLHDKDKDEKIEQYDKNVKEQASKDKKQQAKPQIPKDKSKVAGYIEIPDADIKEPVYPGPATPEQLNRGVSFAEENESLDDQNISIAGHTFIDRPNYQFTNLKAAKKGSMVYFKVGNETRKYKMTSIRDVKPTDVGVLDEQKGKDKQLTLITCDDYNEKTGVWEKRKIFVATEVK

Take `C[C@@H]1CC[C@H]2[C@@H](C)C(=O)O[C@@H]3O[C@@]4(C)CC[C@@H]1[C@]32OO4` [Artemisinin, reference compound]: in data set [1], the “SrtA inhibition (result in words)” value is reported as “statistically significant SrtA inhibition” and the inhibition at 50 µM was determined as 5.32%.
For `O=c1cc(-c2ccccc2)oc2cc(O)cc(O)c12` [Chrysin], the LC50 at 48 h in data set [2] was 17.7 µM. The “SrtA inhibition (result in words)” value in data set [1] was “statistically significant SrtA inhibition”.
With `O=c1ccc2cc(O)c(O)cc2o1` [Esculetin], in data set [3], the Maximum lethality is given as not above 30% and the Highest lethality is on record as not above 30%. Further, in data set [1], the IC50 was found to be 36.2 µM, the “SrtA inhibition (result in words)” value is “statistically significant SrtA inhibition”, 250 µM produced 83.6% inhibition and the “SrtA inhibitory activity relative to myricetin (fold lower; myricetin IC50 fold lower than this compound)” value is recorded as “eight-fold”.
`O=c1ccc2cc(O[C@@H]3O[C@H](CO)[C@@H](O)[C@H](O)[C@H]3O)c(O)cc2o1` [Esculin, Esculin sesquihydrate]: the “SrtA inhibition (result in words)” value in data set [1] was “low SrtA inhibition”.
`O=c1c(-c2ccc(O)cc2)coc2cc(O)cc(O)c12` [Genistein] gave an inhibition at 500 µM in data set [1] of 9.63%.
As to `O=C(O)c1cc[c]([Hg][OH])cc1` [HMB, 4-hydroxymercuribenzoic acid, reference compound], in data set [1] (5 μM, after 1 h of incubation), the “Inhibition (%)” value stood at 93.87%. For the same molecule, the IC50 in data set [1] (after 1 h of incubation, read-out: IC50) is 0.114 µM.
In data set [3], `O=c1c(O)c(-c2cc(O)c(O)c(O)c2)oc2cc(O)cc(O)c12` [Myricetin] showed a Maximum lethality not above 30% and a Highest lethality not above 30%. In data set [1], half-maximal inhibition (IC50) required 4.63 µM, the “SrtA inhibition (result in words)” value was “statistically significant SrtA inhibition” and the inhibition at 100 µM amounted to 92%.
Consider `COc1cc2c(cc1OC)-c1cc3ccc(OC)c(OC)c3c[n+]1CC2` [Palmatine chloride], for which, in data set [3], the Maximum lethality is listed as not above 30% and the Highest lethality is given as not above 30%. In data set [1], the half-maximal inhibitory concentration (IC50) was determined as 52.8 µM, the “SrtA inhibition (result in words)” value was “statistically significant SrtA inhibition”, the inhibition at 500 µM came out at 85.3% and the “SrtA inhibitory activity relative to myricetin (fold lower; myricetin IC50 fold lower than this compound)” value is on record as “eleven-fold”.
In data set [2], `O=C(/C=C/C=C/c1ccc2c(c1)OCO2)N1CCCCC1` [Piperine] returned a 50% lethal concentration (LC50) at 24 h of 145 µM and an LC50 at 48 h of 3.45 µM. Besides, in data set [3], the “Toxicity on Daphnia magna (result in words)” value is “high level of toxicity”. In addition, in data set [1], the “SrtA inhibition (result in words)” value is given as “statistically significant SrtA inhibition” and testing at 10 µM gave an inhibition of 14.9%. For the same molecule, in data set [4], the “Solubility in water (result in words)” value is listed as “low solubility in water; also recorded: low aqueous solubility”.
As for `COc1cc([C@@H]2c3cc4c(cc3[C@H](O)[C@H]3COC(=O)[C@H]23)OCO4)cc(OC)c1OC` [Podophyllotoxin], the 50% lethal concentration (LC50) at 48 h in data set [2] stood at 6.47 µM. The “Toxicity on Daphnia magna (result in words)” value in data set [3] was “high level of toxicity”. For the same molecule, in data set [1], the “SrtA inhibition (result in words)” value is “statistically significant SrtA inhibition” and 50 µM produced 26.4% inhibition. In data set [4], the “Solubility in water (result in words)” value is recorded as “low aqueous solubility”.
With `O=C(O)[C@]1(O)C[C@@H](O)[C@@H](O)[C@H](O)C1` [Quinic acid], in data set [1], the “SrtA inhibition (result in words)” value was “statistically significant SrtA inhibition” and 500 µM produced 19.6% inhibition.
In data set [3], `C[C@@H]1O[C@@H](OC[C@H]2O[C@@H](Oc3c(-c4ccc(O)c(O)c4)oc4cc(O)cc(O)c4c3=O)[C@H](O)[C@@H](O)[C@@H]2O)[C@H](O)[C@H](O)[C@H]1O` [Rutin trihydrate] showed a Maximum lethality not above 30% and a Highest lethality not above 30%. In addition, in data set [1], the “SrtA inhibition (result in words)” value is recorded as “statistically significant SrtA inhibition” and the inhibition at 500 µM worked out at 28.7%.
For `C[C@@H]1O[C@@H](OC[C@H]2O[C@@H](Oc3c(-c4ccc(OCCO)c(OCCO)c4)oc4cc(OCCO)cc(O)c4c3=O)[C@H](O)[C@@H](O)[C@@H]2O)[C@H](O)[C@H](O)[C@H]1O` [Troxerutin], in data set [3], the Maximum lethality is recorded as not above 30% and the Highest lethality was not above 30%. In addition, in data set [1], the “SrtA inhibition (result in words)” value is on record as “statistically significant SrtA inhibition” and the inhibition at 500 µM came to 23.5%.
In data set [2], `O=c1ccc2ccc(O)cc2o1` [Umbelliferone] gave an LC50 at 48 h of 105 µM. Further, in data set [1], the “SrtA inhibition (result in words)” value is on record as “statistically significant SrtA inhibition; also recorded: small inhibitory effect” and the inhibition at 250 µM is 4.04%.
On to `O=C(O)/C=C/c1ccc(O)c(O)c1` [caffeic acid, Caffeic acid], for which, in data set [1], the “SrtA inhibition (result in words)” value was “inactive”.
On the same count and under the same terms, in the case of `O=c1ccc2ccccc2o1` [coumarin, Coumarin] it was “small inhibitory effect”.
As to `C[C@@H]1O[C@@H](O[C@H]2[C@H](Oc3cc(O)c4c(c3)O[C@H](c3ccc(O)cc3)CC4=O)O[C@H](CO)[C@@H](O)[C@@H]2O)[C@H](O)[C@H](O)[C@H]1O` [naringin, Naringin], in data set [3], the Maximum lethality is given as not above 30%. In data set [1], the “SrtA inhibition (result in words)” value is recorded as “statistically significant SrtA inhibition”.
In the case of `COc1cc(/C=C/C(=O)O)ccc1O` [trans-ferulic acid, trans-Ferulic acid], in data set [1], the “SrtA inhibition (result in words)” value is “inactive”.
